Measurements published in the NIST ThermoML archive (doi:10.1016/j.jct.2018.08.013).
“And” between values parts separate entries of the source, which are not always exact repeats. Identical values can stand only once. ± gives the expanded uncertainty stated by the source.

Key:
[1] = specific heat capacity at constant pressure; xn = mol fraction of the nth substance listed; conditions: 100 kPa, Crystal of intercomponent compound 1, x2 = 0.451
[2] = xn = mol fraction of the nth substance listed; conditions: 298 K; 100 kPa; Crystal of intercomponent compound 1; X-ray diffraction; x2 = 0.451

Structure (SMILES): [S] [sulfur] + [In]
- specific heat capacity ([1]; 14.16 K, relaxation calorimetry): 10.46 ± 1 J/K/kg
- specific heat capacity ([1]; 14.18 K, relaxation calorimetry): 10.51 ± 1 J/K/kg
- specific heat capacity ([1]; 16.17 K, relaxation calorimetry): 15.52 ± 1.2 J/K/kg
- specific heat capacity ([1]; 16.18 K, relaxation calorimetry): 15.54 ± 1.2 J/K/kg
- specific heat capacity ([1]; 16.19 K, relaxation calorimetry): 15.59 ± 1.2 J/K/kg
- specific heat capacity ([1]; 18.2 K, relaxation calorimetry): 21.32 ± 1.5 J/K/kg and 21.36 ± 1.5 J/K/kg
- specific heat capacity ([1]; 20.21 K, relaxation calorimetry): 27.47 ± 1.7 J/K/kg and 27.51 ± 1.7 J/K/kg
- specific heat capacity ([1]; 20.22 K, relaxation calorimetry): 27.57 ± 1.7 J/K/kg
- specific heat capacity ([1]; 22.23 K, relaxation calorimetry): 33.81 ± 1.9 J/K/kg and 33.8 ± 1.9 J/K/kg
- specific heat capacity ([1]; 22.24 K, relaxation calorimetry): 33.85 ± 1.9 J/K/kg
- specific heat capacity ([1]; 24.25 K, relaxation calorimetry): 40.26 ± 2.1 J/K/kg and 40.2 ± 2.1 J/K/kg
- specific heat capacity ([1]; 24.26 K, relaxation calorimetry): 40.28 ± 2.1 J/K/kg
- specific heat capacity ([1]; 26.26 K, relaxation calorimetry): 46.66 ± 2.3 J/K/kg and 46.68 ± 2.3 J/K/kg
- specific heat capacity ([1]; 26.27 K, relaxation calorimetry): 46.58 ± 2.3 J/K/kg
- specific heat capacity ([1]; 28.28 K, relaxation calorimetry): 52.75 ± 2.5 J/K/kg and 52.77 ± 2.5 J/K/kg and 52.81 ± 2.5 J/K/kg
- specific heat capacity ([1]; 30.3 K, relaxation calorimetry): 58.62 ± 2.6 J/K/kg and 58.63 ± 2.6 J/K/kg
- specific heat capacity ([1]; 30.31 K, relaxation calorimetry): 58.71 ± 2.6 J/K/kg
- specific heat capacity ([1]; 35.34 K, relaxation calorimetry): 72.92 ± 3.1 J/K/kg
- specific heat capacity ([1]; 35.36 K, relaxation calorimetry): 72.92 ± 3.1 J/K/kg
- specific heat capacity ([1]; 40.38 K, relaxation calorimetry): 85.85 ± 3.6 J/K/kg
- specific heat capacity ([1]; 45.42 K, relaxation calorimetry): 97.7 ± 4.1 J/K/kg
- specific heat capacity ([1]; 45.43 K, relaxation calorimetry): 97.63 ± 4.1 J/K/kg
- specific heat capacity ([1]; 45.44 K, relaxation calorimetry): 97.63 ± 4.1 J/K/kg
- specific heat capacity ([1]; 50.46 K, relaxation calorimetry): 109.27 ± 4.5 J/K/kg and 109.41 ± 4.6 J/K/kg
- specific heat capacity ([1]; 50.48 K, relaxation calorimetry): 109.27 ± 4.5 J/K/kg
- specific heat capacity ([1]; 55.5 K, relaxation calorimetry): 120.03 ± 5 J/K/kg and 120.1 ± 5 J/K/kg
- specific heat capacity ([1]; 55.51 K, relaxation calorimetry): 120.17 ± 5 J/K/kg
- specific heat capacity ([1]; 60.54 K, relaxation calorimetry): 130.38 ± 5.4 J/K/kg and 130.24 ± 5.4 J/K/kg
- specific heat capacity ([1]; 65.58 K, relaxation calorimetry): 140.8 ± 5.8 J/K/kg and 140.86 ± 5.8 J/K/kg
- specific heat capacity ([1]; 65.59 K, relaxation calorimetry): 140.8 ± 5.8 J/K/kg
- specific heat capacity ([1]; 70.62 K, relaxation calorimetry): 151.01 ± 6.2 J/K/kg and 151.08 ± 6.2 J/K/kg
- specific heat capacity ([1]; 70.64 K, relaxation calorimetry): 150.94 ± 6.2 J/K/kg
- specific heat capacity ([1]; 75.66 K, relaxation calorimetry): 160.88 ± 6.6 J/K/kg and 160.47 ± 6.5 J/K/kg and 160.68 ± 6.6 J/K/kg
- specific heat capacity ([1]; 80.69 K, relaxation calorimetry): 170.82 ± 7 J/K/kg and 170.68 ± 6.9 J/K/kg and 170.62 ± 6.9 J/K/kg
- specific heat capacity ([1]; 85.73 K, relaxation calorimetry): 180.22 ± 7.4 J/K/kg and 180.15 ± 7.4 J/K/kg and 179.74 ± 7.4 J/K/kg
- specific heat capacity ([1]; 90.75 K, relaxation calorimetry): 189.47 ± 7.8 J/K/kg
- specific heat capacity ([1]; 90.77 K, relaxation calorimetry): 189.13 ± 7.7 J/K/kg and 188.59 ± 7.7 J/K/kg
- specific heat capacity ([1]; 95.78 K, relaxation calorimetry): 197.58 ± 8 J/K/kg
- specific heat capacity ([1]; 95.79 K, relaxation calorimetry): 197.17 ± 8 J/K/kg and 197.1 ± 8 J/K/kg
- specific heat capacity ([1]; 100.82 K, relaxation calorimetry): 204.93 ± 8.4 J/K/kg
- specific heat capacity ([1]; 100.83 K, relaxation calorimetry): 204.59 ± 8.3 J/K/kg
- specific heat capacity ([1]; 100.92 K, relaxation calorimetry): 204.18 ± 8.3 J/K/kg
- specific heat capacity ([1]; 105.86 K, relaxation calorimetry): 212.83 ± 8.6 J/K/kg
- specific heat capacity ([1]; 105.87 K, relaxation calorimetry): 213.24 ± 8.7 J/K/kg and 212.76 ± 8.6 J/K/kg
- specific heat capacity ([1]; 113.82 K, relaxation calorimetry): 223.18 ± 9.1 J/K/kg and 223.24 ± 9.1 J/K/kg and 222.9 ± 9.1 J/K/kg
- specific heat capacity ([1]; 121.72 K, relaxation calorimetry): 233.18 ± 9.5 J/K/kg
- specific heat capacity ([1]; 121.75 K, relaxation calorimetry): 233.18 ± 9.5 J/K/kg
- specific heat capacity ([1]; 121.76 K, relaxation calorimetry): 233.12 ± 9.5 J/K/kg
- specific heat capacity ([1]; 129.68 K, relaxation calorimetry): 241.97 ± 9.8 J/K/kg
- specific heat capacity ([1]; 129.69 K, relaxation calorimetry): 242.31 ± 9.9 J/K/kg and 241.97 ± 9.8 J/K/kg
- specific heat capacity ([1]; 137.6 K, relaxation calorimetry): 249.86 ± 10 J/K/kg
- specific heat capacity ([1]; 137.62 K, relaxation calorimetry): 250 ± 10 J/K/kg
- specific heat capacity ([1]; 145.51 K, relaxation calorimetry): 257.22 ± 10 J/K/kg
- specific heat capacity ([1]; 145.55 K, relaxation calorimetry): 257.15 ± 10 J/K/kg and 256.88 ± 10 J/K/kg
- specific heat capacity ([1]; 153.44 K, relaxation calorimetry): 264.09 ± 11 J/K/kg
- specific heat capacity ([1]; 153.45 K, relaxation calorimetry): 264.23 ± 11 J/K/kg
- specific heat capacity ([1]; 153.46 K, relaxation calorimetry): 264.03 ± 11 J/K/kg
- specific heat capacity ([1]; 161.36 K, relaxation calorimetry): 269.88 ± 11 J/K/kg
- specific heat capacity ([1]; 161.38 K, relaxation calorimetry): 270.02 ± 11 J/K/kg
- specific heat capacity ([1]; 161.39 K, relaxation calorimetry): 270.08 ± 11 J/K/kg
- specific heat capacity ([1]; 169.28 K, relaxation calorimetry): 275.6 ± 11 J/K/kg
- specific heat capacity ([1]; 169.31 K, relaxation calorimetry): 275.74 ± 11 J/K/kg
- specific heat capacity ([1]; 169.32 K, relaxation calorimetry): 275.46 ± 11 J/K/kg
- specific heat capacity ([1]; 177.2 K, relaxation calorimetry): 280.36 ± 11 J/K/kg
- specific heat capacity ([1]; 177.24 K, relaxation calorimetry): 280.23 ± 11 J/K/kg and 280.3 ± 11 J/K/kg
- specific heat capacity ([1]; 185.14 K, relaxation calorimetry): 284.52 ± 12 J/K/kg
- specific heat capacity ([1]; 185.17 K, relaxation calorimetry): 284.79 ± 12 J/K/kg and 284.86 ± 12 J/K/kg
- specific heat capacity ([1]; 193.05 K, relaxation calorimetry): 288.4 ± 12 J/K/kg
- specific heat capacity ([1]; 193.08 K, relaxation calorimetry): 288.74 ± 12 J/K/kg
- specific heat capacity ([1]; 193.09 K, relaxation calorimetry): 289.08 ± 12 J/K/kg
- specific heat capacity ([1]; 200.97 K, relaxation calorimetry): 292.69 ± 12 J/K/kg
- specific heat capacity ([1]; 201 K, relaxation calorimetry): 292.89 ± 12 J/K/kg
- specific heat capacity ([1]; 201.01 K, relaxation calorimetry): 293.03 ± 12 J/K/kg
- specific heat capacity ([1]; 208.88 K, relaxation calorimetry): 296.02 ± 12 J/K/kg
- specific heat capacity ([1]; 208.92 K, relaxation calorimetry): 295.96 ± 12 J/K/kg and 296.16 ± 12 J/K/kg
- specific heat capacity ([1]; 216.78 K, relaxation calorimetry): 299.56 ± 12 J/K/kg
- specific heat capacity ([1]; 216.82 K, relaxation calorimetry): 299.7 ± 12 J/K/kg
- specific heat capacity ([1]; 216.83 K, relaxation calorimetry): 299.7 ± 12 J/K/kg
- specific heat capacity ([1]; 224.7 K, relaxation calorimetry): 302.56 ± 12 J/K/kg
- specific heat capacity ([1]; 224.74 K, relaxation calorimetry): 303.1 ± 12 J/K/kg
- specific heat capacity ([1]; 224.75 K, relaxation calorimetry): 302.7 ± 12 J/K/kg
- specific heat capacity ([1]; 232.6 K, relaxation calorimetry): 305.01 ± 12 J/K/kg
- specific heat capacity ([1]; 232.66 K, relaxation calorimetry): 305.01 ± 12 J/K/kg and 305.22 ± 12 J/K/kg
- specific heat capacity ([1]; 240.51 K, relaxation calorimetry): 306.71 ± 12 J/K/kg
- specific heat capacity ([1]; 240.54 K, relaxation calorimetry): 307.67 ± 13 J/K/kg and 307.53 ± 12 J/K/kg
- specific heat capacity ([1]; 248.4 K, relaxation calorimetry): 309.84 ± 13 J/K/kg
- specific heat capacity ([1]; 248.45 K, relaxation calorimetry): 310.12 ± 13 J/K/kg
- specific heat capacity ([1]; 248.48 K, relaxation calorimetry): 308.89 ± 13 J/K/kg
- specific heat capacity ([1]; 256.34 K, relaxation calorimetry): 310.59 ± 13 J/K/kg
- specific heat capacity ([1]; 256.4 K, relaxation calorimetry): 310.73 ± 13 J/K/kg and 310.66 ± 13 J/K/kg
- specific heat capacity ([1]; 262.24 K, Extra sensitive DSC): 315.9 ± 12 J/K/kg
- specific heat capacity ([1]; 264.24 K, relaxation calorimetry): 312.43 ± 13 J/K/kg
- specific heat capacity ([1]; 264.3 K, relaxation calorimetry): 312.98 ± 13 J/K/kg
- specific heat capacity ([1]; 264.31 K, relaxation calorimetry): 312.98 ± 13 J/K/kg
- specific heat capacity ([1]; 265 K, Extra sensitive DSC): 316.72 ± 12 J/K/kg
- specific heat capacity ([1]; 270 K, Extra sensitive DSC): 317.74 ± 12 J/K/kg
- specific heat capacity ([1]; 275 K, Extra sensitive DSC): 319.31 ± 12 J/K/kg
- specific heat capacity ([1]; 280 K, Extra sensitive DSC): 320.94 ± 12 J/K/kg
- specific heat capacity ([1]; 285 K, Extra sensitive DSC): 322.44 ± 12 J/K/kg
- specific heat capacity ([1]; 290 K, Extra sensitive DSC): 323.94 ± 13 J/K/kg
- specific heat capacity ([1]; 295 K, Extra sensitive DSC): 325.44 ± 13 J/K/kg
- specific heat capacity ([1]; 300 K, Extra sensitive DSC): 326.59 ± 13 J/K/kg
- specific heat capacity ([1]; 305 K, Extra sensitive DSC): 328.02 ± 13 J/K/kg
- specific heat capacity ([1]; 310 K, Extra sensitive DSC): 329.18 ± 13 J/K/kg
- specific heat capacity ([1]; 315 K, Extra sensitive DSC): 329.93 ± 13 J/K/kg
- specific heat capacity ([1]; 320 K, Extra sensitive DSC): 330.54 ± 13 J/K/kg
- specific heat capacity ([1]; 325 K, Extra sensitive DSC): 331.29 ± 13 J/K/kg
- specific heat capacity ([1]; 330 K, Extra sensitive DSC): 332.31 ± 13 J/K/kg
- specific heat capacity ([1]; 335 K, Extra sensitive DSC): 333.13 ± 13 J/K/kg
- specific heat capacity ([1]; 337.86 K, Extra sensitive DSC): 333.4 ± 13 J/K/kg
- specific heat capacity ([1]; 340.38 K, Extra sensitive DSC): 332.92 ± 13 J/K/kg
- specific heat capacity ([1]; 343.85 K, Extra sensitive DSC): 333.47 ± 13 J/K/kg
- specific heat capacity ([1]; 345.58 K, Extra sensitive DSC): 333.74 ± 13 J/K/kg
- specific heat capacity ([1]; 348.19 K, Extra sensitive DSC): 335.31 ± 13 J/K/kg
- specific heat capacity ([1]; 350.79 K, Extra sensitive DSC): 335.51 ± 13 J/K/kg
- specific heat capacity ([1]; 353.39 K, Extra sensitive DSC): 335.99 ± 13 J/K/kg
- specific heat capacity ([1]; 355.13 K, Extra sensitive DSC): 336.53 ± 13 J/K/kg
- specific heat capacity ([1]; 356 K, Extra sensitive DSC): 335.78 ± 13 J/K/kg
- specific heat capacity ([1]; 358.6 K, Extra sensitive DSC): 336.4 ± 13 J/K/kg
- mass density [2]: 5211 ± 300 kg/m3
